# Experimental data published in ChEMBL document CHEMBL1201862, “PubChem BioAssay data set” (2004).
# Activity calls are given as the source filed them.
# What was measured:
# [1] = target: Wee1-like protein kinase (Homo sapiens, UniProt P30291); test: G2/M cell cycle arrest in HeLa, late-stage follow-up, mechanism study for Wee1 degradation inhibitor project, FACS, panel member Wee1 Degradation (AID 2088)
# [2] = target: G2/mitotic-specific cyclin-B1 (Homo sapiens, UniProt P14635); test: G2/M cell cycle arrest in HeLa, late-stage follow-up, mechanism study for Wee1 degradation inhibitor project, FACS, panel member Cyclin B Degradation (AID 2088)
# Chain of G2/mitotic-specific cyclin-B1 (P14635 whole entry): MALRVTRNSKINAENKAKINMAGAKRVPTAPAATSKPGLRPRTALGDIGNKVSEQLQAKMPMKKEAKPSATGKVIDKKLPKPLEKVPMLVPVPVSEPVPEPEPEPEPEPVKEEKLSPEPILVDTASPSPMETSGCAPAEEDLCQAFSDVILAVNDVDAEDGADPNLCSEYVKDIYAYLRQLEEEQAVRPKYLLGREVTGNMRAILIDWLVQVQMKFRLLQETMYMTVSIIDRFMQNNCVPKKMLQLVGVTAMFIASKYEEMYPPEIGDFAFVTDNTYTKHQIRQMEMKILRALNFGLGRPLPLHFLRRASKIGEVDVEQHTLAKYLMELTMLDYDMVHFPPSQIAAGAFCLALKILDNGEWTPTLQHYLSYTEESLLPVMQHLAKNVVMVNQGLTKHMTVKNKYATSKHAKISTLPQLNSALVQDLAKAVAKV
# [3] = A Cell Based Secondary Assay To Explore Cytotoxicity of Compounds that Sensitize Mycobacterium Tuberculosis to Beta-Lactam Antibiotics.; assay type: functional
# [4] = test system: INS1; test: beta cell apoptosis inhibitors, cytokine rescue, dose response, luminescence, retest (AID 449756); assay type: functional, cell-based; conditions: Rattus norvegicus;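 further: cell death triggered by IL-1 beta plus TNF-alpha plus IFN-gamma mixture; protective hits raise ATP signal compared with cytokine alone wells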
# [5] = cytotoxicity toward DRD oncogenic fibroblasts, dose response, cell-based, non-viral oncogenic, luminescence (AID 1934); assay type: functional; conditions: Homo sapiens
# [6] = test system: BJ; test: cytotoxicity toward BJ-TERT-LT-ST fibroblasts, dose response, cell-based, RAS-independent, luminescence (AID 1935); assay type: functional; conditions: Homo sapiens;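 further: BJ fibroblasts immortalized with TERT plus LT and ST oncogenes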
# [7] = test system: BJ; test: cells; assay type: functional, cell-based; conditions: Homo sapiens
# [8] = test system: BJ; test: cytotoxicity toward BJ-TERT fibroblasts, dose response, cell-based, RAS-independent, luminescence (AID 1933); assay type: functional; conditions: Homo sapiens
# [9] = cells; assay type: functional, cell-based
# [10] = cells; assay type: functional, cell-based; remark: listed apart in the source
# [11] = target: Acyl-homoserine lactone acylase PvdQ (Pseudomonas aeruginosa (strain LESB58), UniProt Q9I194); test: P. aeruginosa PvdQ acylase inhibitors, dose response, biochemical, fluorescence, plate reader and imaging, cherry-picks (AID 493231)
# Chain of Acyl-homoserine lactone acylase PvdQ (Q9I194 24-193 limits assumed): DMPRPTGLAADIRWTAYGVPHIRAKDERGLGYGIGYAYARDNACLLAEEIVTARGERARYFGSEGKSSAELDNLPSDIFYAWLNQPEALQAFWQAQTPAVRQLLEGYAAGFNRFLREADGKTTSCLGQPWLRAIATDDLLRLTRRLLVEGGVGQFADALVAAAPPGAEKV
# Chain of Acyl-homoserine lactone acylase PvdQ (Q9I194 217-762 limits assumed): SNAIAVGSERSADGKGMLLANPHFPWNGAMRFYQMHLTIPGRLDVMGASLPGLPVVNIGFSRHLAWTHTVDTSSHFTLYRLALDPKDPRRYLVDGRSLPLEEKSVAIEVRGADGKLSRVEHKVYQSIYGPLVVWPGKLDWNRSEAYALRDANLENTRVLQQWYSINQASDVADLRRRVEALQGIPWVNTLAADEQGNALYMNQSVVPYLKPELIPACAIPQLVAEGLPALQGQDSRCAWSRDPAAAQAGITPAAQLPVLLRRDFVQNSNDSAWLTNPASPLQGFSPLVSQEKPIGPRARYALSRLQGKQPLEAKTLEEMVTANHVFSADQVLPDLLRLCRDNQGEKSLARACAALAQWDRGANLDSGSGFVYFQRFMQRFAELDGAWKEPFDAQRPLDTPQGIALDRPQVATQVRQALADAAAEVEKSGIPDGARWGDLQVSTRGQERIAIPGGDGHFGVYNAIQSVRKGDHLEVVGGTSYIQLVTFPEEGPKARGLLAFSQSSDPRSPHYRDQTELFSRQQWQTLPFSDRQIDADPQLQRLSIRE
# [12] = target: T1, Short transient receptor potential channel 4 (Mus musculus, UniProt Q9QUQ5); test: mouse TRPC4 channel inhibitors, dose response, cell-based, HEK293 TRPC4/mu-opioid, Fluo-4 calcium (AID 434942); assay type: functional;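 further: potency of inhibitors blocking the TRPC4 calcium response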
# T1 sequence (Q9QUQ5 whole entry): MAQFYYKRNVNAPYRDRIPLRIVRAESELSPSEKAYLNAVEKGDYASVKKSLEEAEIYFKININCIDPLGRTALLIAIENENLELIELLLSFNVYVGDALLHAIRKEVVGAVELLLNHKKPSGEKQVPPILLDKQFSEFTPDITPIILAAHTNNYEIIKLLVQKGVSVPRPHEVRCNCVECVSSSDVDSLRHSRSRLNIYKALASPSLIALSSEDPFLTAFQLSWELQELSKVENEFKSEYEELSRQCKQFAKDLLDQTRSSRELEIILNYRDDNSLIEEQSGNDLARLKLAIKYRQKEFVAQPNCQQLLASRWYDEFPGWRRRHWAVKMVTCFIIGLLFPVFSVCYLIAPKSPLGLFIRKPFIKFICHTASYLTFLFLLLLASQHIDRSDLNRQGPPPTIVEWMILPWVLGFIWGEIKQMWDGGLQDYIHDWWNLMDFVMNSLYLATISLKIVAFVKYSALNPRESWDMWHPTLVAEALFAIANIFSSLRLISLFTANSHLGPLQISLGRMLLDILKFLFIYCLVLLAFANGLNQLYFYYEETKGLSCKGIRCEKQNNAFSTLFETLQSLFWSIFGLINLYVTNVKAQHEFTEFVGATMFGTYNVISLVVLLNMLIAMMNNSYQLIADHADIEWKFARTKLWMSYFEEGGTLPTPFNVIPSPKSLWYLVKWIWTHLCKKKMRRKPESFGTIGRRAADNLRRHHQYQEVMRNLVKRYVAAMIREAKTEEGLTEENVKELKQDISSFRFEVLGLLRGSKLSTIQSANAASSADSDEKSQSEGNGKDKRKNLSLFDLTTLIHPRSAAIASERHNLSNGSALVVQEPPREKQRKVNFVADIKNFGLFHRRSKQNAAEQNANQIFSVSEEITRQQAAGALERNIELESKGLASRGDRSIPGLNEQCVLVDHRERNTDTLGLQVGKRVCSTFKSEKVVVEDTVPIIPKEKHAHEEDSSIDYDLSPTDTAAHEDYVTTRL
# [13] = HepG2 cell cytotoxicity, dose response, cytotoxicity control for Shn3 inhibitor project, CellTiter-Glo, cherry-picked (AID 624134); assay type: functional, cell-based
# [14] = THP-1 cell cytotoxicity, dose response, cytotoxicity control for Vif-APOBEC3G degradation inhibitor project, THP-1 cells (AID 1117359); assay type: functional; conditions: Human immunodeficiency virus 1, THP-1
# [15] = target: Genome polyprotein (dengue virus type 2, UniProt P29990); test: Dengue-2 NS5 methyltransferase inhibitors, primary screen, biochemical, confirmation dose response (AID 588689); assay type: functional
# Chain of Genome polyprotein (P29990 2492-3391 limits assumed): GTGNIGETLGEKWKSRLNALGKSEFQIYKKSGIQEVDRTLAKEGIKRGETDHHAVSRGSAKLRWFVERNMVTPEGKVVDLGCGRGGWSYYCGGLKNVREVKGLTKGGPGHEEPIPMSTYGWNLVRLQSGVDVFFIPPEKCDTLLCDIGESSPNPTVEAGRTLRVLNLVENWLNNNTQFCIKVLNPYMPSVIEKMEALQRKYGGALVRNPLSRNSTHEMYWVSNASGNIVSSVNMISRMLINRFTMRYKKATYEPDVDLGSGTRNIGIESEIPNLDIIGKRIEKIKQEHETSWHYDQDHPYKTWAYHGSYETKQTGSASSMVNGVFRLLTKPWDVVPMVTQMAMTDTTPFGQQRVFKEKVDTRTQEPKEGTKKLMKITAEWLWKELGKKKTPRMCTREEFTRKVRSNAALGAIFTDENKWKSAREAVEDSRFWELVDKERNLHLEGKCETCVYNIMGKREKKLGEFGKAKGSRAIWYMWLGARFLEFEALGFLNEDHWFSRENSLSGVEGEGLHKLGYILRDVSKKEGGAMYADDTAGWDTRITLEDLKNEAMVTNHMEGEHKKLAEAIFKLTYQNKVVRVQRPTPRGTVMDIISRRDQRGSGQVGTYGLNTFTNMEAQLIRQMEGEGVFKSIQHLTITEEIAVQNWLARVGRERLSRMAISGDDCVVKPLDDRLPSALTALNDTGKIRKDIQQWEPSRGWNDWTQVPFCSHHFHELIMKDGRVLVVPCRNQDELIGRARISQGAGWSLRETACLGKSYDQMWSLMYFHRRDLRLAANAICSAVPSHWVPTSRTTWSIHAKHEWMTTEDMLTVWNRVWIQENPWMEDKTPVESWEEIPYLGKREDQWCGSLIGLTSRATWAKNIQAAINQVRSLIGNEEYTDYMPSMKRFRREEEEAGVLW
# [16] = target: Nonstructural protein 1 (Influenza A virus, UniProt Q194T2); assay type: functional, Influenza A virus (A/California/07/2009(H1N1))
# Chain of Nonstructural protein 1 (Q194T2 whole entry): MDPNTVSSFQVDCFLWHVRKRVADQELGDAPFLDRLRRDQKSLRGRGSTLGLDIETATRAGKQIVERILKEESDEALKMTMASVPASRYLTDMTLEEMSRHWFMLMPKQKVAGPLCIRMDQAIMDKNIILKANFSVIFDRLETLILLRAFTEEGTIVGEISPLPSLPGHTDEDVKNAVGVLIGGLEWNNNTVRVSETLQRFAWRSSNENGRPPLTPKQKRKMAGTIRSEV
# [17] = test system: Vero; test: Vero cell cytotoxicity, cytotoxicity control for flavivirus capping enzyme inhibitors (AID 588742); assay type: functional; conditions: Chlorocebus sabaeus
# [18] = target: Beta-galactosidase (Escherichia coli, UniProt Q8VNN2); test: beta-galactosidase enzyme inhibitors and activators, dose response, artefact control for CCR6 antagonist project, biochemical, E. coli enzyme, set 3 (AID 504712); assay type: functional
# Chain of Beta-galactosidase (Q8VNN2 whole entry): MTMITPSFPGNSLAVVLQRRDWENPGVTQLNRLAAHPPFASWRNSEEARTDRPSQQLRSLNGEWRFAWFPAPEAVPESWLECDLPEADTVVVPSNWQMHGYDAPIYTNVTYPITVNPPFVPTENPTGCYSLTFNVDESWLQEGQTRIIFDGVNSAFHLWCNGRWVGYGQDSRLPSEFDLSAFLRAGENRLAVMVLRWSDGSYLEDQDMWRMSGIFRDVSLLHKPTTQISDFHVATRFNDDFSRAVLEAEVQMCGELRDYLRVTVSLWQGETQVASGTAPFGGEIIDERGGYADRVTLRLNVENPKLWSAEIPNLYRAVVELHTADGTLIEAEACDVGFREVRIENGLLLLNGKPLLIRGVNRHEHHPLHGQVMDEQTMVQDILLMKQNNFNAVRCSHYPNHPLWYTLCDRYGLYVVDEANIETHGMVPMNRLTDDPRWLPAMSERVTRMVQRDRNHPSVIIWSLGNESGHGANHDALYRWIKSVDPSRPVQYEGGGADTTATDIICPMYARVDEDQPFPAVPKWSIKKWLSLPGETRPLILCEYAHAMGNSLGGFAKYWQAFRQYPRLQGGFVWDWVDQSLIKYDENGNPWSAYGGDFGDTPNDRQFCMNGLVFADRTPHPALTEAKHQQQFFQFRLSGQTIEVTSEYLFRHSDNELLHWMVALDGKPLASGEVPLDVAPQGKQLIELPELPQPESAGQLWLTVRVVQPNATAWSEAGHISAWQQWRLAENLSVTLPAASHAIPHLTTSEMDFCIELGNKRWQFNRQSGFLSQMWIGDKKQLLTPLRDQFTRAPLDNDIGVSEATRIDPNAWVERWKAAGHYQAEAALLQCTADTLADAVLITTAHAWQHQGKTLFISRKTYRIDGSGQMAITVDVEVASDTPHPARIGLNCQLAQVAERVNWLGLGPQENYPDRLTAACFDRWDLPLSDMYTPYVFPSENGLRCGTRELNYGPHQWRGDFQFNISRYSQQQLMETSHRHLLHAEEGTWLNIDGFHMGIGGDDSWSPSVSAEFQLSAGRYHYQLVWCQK
# [19] = target: C-C chemokine receptor type 6 (Homo sapiens, UniProt P51684); test: CCR6 receptor antagonists, dose response, cell-based, luminescent beta-arrestin readout (AID 504728); assay type: functional
# [20] = target: Glucose-6-phosphate 1-dehydrogenase (Homo sapiens, UniProt P11413); test: human G6PD enzyme inhibitors, dose response, selectivity assay for P. falciparum G6PD inhibitor project, biochemical, fluorescence (AID 504792); assay type: functional
# [21] = control 3'UTR Renilla luciferase suppression, dose response, counter-screen for Shn3 inhibitor project, cell-based, Clone20-Shn3RL, cherry-picked (AID 624133); assay type: functional
# [22] = human group III sPLA2 inhibitors, dose response, biochemical, QFRET, IC50 (AID 743457);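 further: green fluorescence rise as the enzyme cleaves BODIPY PC-A2 in liposomes; potency for inhibition of the enzyme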
# [23] = target: Glutathione-S-transferase (Schistosoma japonicum, UniProt Q26513); test: biotin-GST/anti-GST TR-FRET signal inhibitors, dose response, artefact control for Vif-APOBEC3G degradation inhibitor project, biochemical (AID 1117362); assay type: functional
# Chain of Glutathione-S-transferase (Q26513 whole entry): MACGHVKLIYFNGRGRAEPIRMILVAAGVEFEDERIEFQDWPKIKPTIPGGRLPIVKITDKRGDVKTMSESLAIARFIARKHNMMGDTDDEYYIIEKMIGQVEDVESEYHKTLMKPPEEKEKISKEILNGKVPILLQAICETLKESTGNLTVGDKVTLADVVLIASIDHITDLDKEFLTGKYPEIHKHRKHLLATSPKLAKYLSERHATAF
# [24] = Shn3 3'UTR reporter inhibitors, dose response, cell-based, Clone20 osteoblasts, firefly luciferase, cherry-picked (AID 624132); assay type: functional;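 further: firefly luciferase luminescence from reporter carrying the Shn3 3'UTR in osteoblasts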
# [25] = test system: HeLa; test: HeLa cell cytotoxicity, dose response, cytotoxicity control, 24 h, cherry-picked samples (AID 504726); assay type: functional, cell-based; conditions: Homo sapiens;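 further: potency for cytotoxicity as loss of luminescence signal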
# [26] = target: Luciferin 4-monooxygenase (Photinus pyralis, UniProt P08659); test: Counter Screen for Luciferase-based Assay Positives. [Related pubchem assays: 620, 618, 411 ]
# Chain of Luciferin 4-monooxygenase (P08659 whole entry): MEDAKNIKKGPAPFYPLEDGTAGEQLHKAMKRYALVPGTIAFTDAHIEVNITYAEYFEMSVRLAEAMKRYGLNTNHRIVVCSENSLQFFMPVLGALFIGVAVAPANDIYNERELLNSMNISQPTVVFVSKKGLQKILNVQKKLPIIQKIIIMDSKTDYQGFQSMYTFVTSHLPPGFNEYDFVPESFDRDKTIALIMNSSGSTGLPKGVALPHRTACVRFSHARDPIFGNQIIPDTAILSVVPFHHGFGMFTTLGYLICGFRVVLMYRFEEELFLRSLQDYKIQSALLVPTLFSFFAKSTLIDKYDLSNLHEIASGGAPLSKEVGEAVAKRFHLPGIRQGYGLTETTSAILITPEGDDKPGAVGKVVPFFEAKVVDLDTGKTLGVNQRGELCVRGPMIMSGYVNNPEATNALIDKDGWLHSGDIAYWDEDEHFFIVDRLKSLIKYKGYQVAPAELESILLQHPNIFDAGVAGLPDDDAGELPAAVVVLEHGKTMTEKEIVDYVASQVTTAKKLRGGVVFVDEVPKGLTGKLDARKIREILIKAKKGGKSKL
# [27] = target: T2, Heat shock factor protein 1 (Mus musculus, UniProt P38532); test: inhibition of MG132-induced HSE-luciferase signal, confirmation, cell-based, NIH3T3, luminescence, dose retest (AID 2382); assay type: functional;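 further: NIH3T3 fibroblasts with HSF1-driven luciferase reporter stressed by proteasome inhibitor MG132; luminescence from HSF1-driven luciferase expression after 8 hours of MG132 stress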
# T2 sequence (P38532 whole entry): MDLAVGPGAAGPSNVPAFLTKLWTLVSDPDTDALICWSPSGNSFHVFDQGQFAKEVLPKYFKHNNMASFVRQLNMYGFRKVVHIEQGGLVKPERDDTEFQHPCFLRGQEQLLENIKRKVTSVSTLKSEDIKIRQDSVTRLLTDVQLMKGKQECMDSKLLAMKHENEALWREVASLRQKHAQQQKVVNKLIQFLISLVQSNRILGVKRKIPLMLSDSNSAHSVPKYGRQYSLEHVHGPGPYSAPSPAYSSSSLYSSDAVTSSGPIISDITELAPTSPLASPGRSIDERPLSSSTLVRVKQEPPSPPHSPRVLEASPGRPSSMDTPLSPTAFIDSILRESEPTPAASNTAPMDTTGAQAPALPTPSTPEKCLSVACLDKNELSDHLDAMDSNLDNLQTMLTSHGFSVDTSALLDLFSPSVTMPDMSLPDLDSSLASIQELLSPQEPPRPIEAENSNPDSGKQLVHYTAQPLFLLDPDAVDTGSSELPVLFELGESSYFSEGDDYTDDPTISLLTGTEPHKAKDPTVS
# [28] = Luminescence-based counterscreen assay for KLF5 inhibitors: dose response cell-based high throughput screening assay to identify cytotoxic compounds using the IEC-6 intestinal epithelial cell line. [Related pubchem assays: 1700 (Primary screen.), 1834 (Confirmation screen.), 1858 (Summary AID.), 1905 (Counterscreen.)]; assay type: functional
# [29] = test system: HT-1080; test: cytotoxicity in HT1080 fibrosarcoma cells, cell-based, fluorescence readout (AID 620); assay type: functional; conditions: Homo sapiens
# Chain of Wee1-like protein kinase (P30291 whole entry): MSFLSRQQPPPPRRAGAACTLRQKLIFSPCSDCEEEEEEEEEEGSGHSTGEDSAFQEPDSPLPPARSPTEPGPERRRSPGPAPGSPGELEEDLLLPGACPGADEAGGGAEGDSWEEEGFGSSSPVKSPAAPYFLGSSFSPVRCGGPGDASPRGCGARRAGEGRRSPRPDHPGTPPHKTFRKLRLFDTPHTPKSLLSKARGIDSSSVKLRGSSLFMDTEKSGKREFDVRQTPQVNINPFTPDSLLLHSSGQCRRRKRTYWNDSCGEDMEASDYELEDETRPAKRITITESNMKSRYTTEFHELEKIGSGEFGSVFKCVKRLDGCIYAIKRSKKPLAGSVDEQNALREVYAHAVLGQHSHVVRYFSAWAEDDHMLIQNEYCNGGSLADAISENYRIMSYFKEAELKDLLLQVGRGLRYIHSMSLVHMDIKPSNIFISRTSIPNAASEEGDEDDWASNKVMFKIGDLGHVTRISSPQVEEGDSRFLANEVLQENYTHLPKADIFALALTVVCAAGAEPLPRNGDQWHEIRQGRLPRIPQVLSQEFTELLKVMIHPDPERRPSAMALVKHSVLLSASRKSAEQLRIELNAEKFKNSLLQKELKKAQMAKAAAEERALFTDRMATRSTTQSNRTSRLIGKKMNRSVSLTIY
smiles,measurement,setting,value
Cc1cccc(NC(=O)COc2cc(=O)n(C)c3ccccc23)n1,EC50,[1],> 49.7 µM (inactive)
same,EC50,[2],> 49.7 µM (inactive)
COc1nc(Nc2nc(O)c3ccccc3n2)nc2ccc(C)cc12,CC50,[3],3.83 µM (active)
same,AC50,[4],1.31 µM (active)
same,EC50,[5],2.3 µM (active)
same,EC50,[6],2.88 µM (inconclusive)
same,EC50,[7],2.93 µM (active)
same,EC50,[8],2.6 µM (active)
CCOC(=O)N1CCN(c2ccc(Cl)c(Cl)c2)CC1,EC50,[9],> 350 µM (not active)
same,EC50,[10],> 350 µM (not active)
same,AC50,[11],25.5 µM (active)
Cc1ccc(-c2[nH]c3ccccc3c2SCCN)cc1,EC50,[12],4.73 µM (active)
CN(C)c1ccc(/C=c2\c3cc([N+](=O)[O-])ccc3n3c2cc(-c2ccccc2)[n+]3C)cc1,AC50,[13],14.6 µM (active)
same,CC50,[14],1.48 µM (active)
same,IC50,[15],11.8 µM (active)
same,IC50,[16],4.31 µM (active)
same,CC50,[17],34.8 µM (active)
same,IC50,[18],> 66.6 µM (inactive)
same,IC50,[19],31.9 µM (inactive)
same,IC50,[20],28.3 µM (inactive)
same,AC50,[21],5.6 µM (active)
same,IC50,[22],6.13 µM (active)
same,IC50,[23],5.79 µM (active)
same,AC50,[24],3.3 µM (active)
Nc1ccc(OCc2ccccc2)cc1[N+](=O)[O-],IC50,[16],58.3 µM (active)
same,AC50,[11],12.5 µM (active)
C=CC[C@@H](CC(=O)N(CCO)Cc1ccccc1)C(=O)NC[C@H](OC(=O)[C@@H](CC=C)CC(=O)OC(C)(C)C)c1ccccc1,AC50,[25],57.2 µM (active)
O=C(CCCc1ccccc1)c1ccc2c(c1)OCCO2,EC50,[26],< 0.2 µM (active)
same,EC50,[27],< 0.16 µM (active)
same,IC50,[28],> 39.8 µM (not active)
same,EC50,[29],> 50 µM (not active)
